Reference: article PMC8698759, “Gold(I) Complexes Bearing Alkylated 1,3,5-Triaza-7-phosphaadamantane Ligands as Thermoresponsive Anticancer Agents in Human Colon Cells” (Biomedicines, 2021)
Read-outs that look alike come from different tables or passages of the source.

How the values were obtained:
Caco-2/TC7 cells = experiment: MTT cytotoxicity / antiproliferative assay on Caco-2/TC7 cells; type: cell-based, human
Description: Human fibroblast cells were kindly provided by Dr. Julio Montoya (Unidad de Bioquímica, Facultad de Veterinaria, Universidad de Zaragoza, Spain). Caco-2 cells (passages 40–70) and fibroblasts (passages 10–30) were maintained in a humidified atmosphere of 5% CO2 at 37 °C. Cells were grown in Dulbecco’s Modified Eagles medium (DMEM) (Gibco Invitrogen, Paisley, UK) supplemented with 20% fetal bovine serum (FBS), 1% non-essential amino acids, 1% penicillin (1000 U/mL), 1% streptomycin (1000 μg/mL) and 1% amphotericin (250 U/mL). […] Caco-2 cells were sub-cultured on 25 cm^2 plastic flasks at a density of 1.2 × 10^4 cells/cm^2, while fibroblasts were sub-cultured on 75 cm^2 plastic flasks at a density of 1 × 10^4 cells/cm^2. Culture medium was replaced every 2 days.
Gold complex was diluted in dimethyl sulfoxide (DMSO) to a stock solution at 20 mM and then re-diluted to a working solution at 2.5 mM before diluting it in cell culture medium to treat cells at desired concentrations.
The influence of hyperthermia was studied by incubating cells at 40 °C for 1 h immediately after treating them with the gold complexes.
For cytotoxicity screening assays, Caco-2 cells were seeded in 96-well plates at a density of 4 × 10^3 cells/well. Culture medium was replaced with medium containing drug panel 24 h post-seeding and cells were incubated for 72 h. In fibroblasts, culture medium containing metal gold complexes was added 10 days post-seeding. Antiproliferative effect was measured with MTT assay as previously described by Mármol et al.. […] To determine the selectivity index (SI) the IC50 value in fibroblasts was divided by IC50 value in Caco-2, obtaining a ratio cancerous/normal cells toxicity.

Recombinant Human TrxR1 = target: T1, Recombinant Human TrxR1 (Homo sapiens, UniProt Q16881); experiment: Thioredoxin reductase 1 (TrxR1) activity assay; type: biochemical; details: auranofin 25 µM; 3a and 3b at IC50 concentrations
T1 construct: purchased Sigma-Aldrich SRP6081
T1 sequence (Q16881 151-649 limits assumed): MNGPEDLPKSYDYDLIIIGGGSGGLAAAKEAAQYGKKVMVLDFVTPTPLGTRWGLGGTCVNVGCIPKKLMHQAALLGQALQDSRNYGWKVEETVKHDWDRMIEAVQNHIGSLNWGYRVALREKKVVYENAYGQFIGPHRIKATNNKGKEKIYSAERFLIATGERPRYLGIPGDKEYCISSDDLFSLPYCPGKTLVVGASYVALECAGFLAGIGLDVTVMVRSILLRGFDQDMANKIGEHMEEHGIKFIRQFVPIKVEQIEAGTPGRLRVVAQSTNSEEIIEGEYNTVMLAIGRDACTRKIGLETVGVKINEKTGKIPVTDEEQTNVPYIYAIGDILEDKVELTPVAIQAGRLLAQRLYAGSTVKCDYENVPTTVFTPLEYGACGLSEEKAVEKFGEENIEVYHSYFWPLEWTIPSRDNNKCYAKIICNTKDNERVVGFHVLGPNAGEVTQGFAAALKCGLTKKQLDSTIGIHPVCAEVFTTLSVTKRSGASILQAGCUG
Description: Recombinant Human TrxR1 (Sigma-Aldrich SRP6081, St. Louis, MO, USA) was incubated in a 96 well plate with different concentration of Au complex previously dissolved in 25 μL of PBS at pH 7.4. The cell solution was incubated in shake motion for 5 min at 37 °C. After incubation time, procedure in Thioredoxin Reductase Assay Kit (Sigma-Aldrich CS0170, St. Louis, MO, USA) was followed. Finally, reaction was started by adding 6 μL DNTB and absorbance at 405 nm was recorded every 30 s for 22 min as a measure of Thioredoxin Reductase Activity.

[1] = 37 °C values rounded, read-out: IC50 values in Caco-2
[2] = 72 h, MTT, 37 °C, mean ± SE, read-out: IC50 Caco-2/TC7 37 °C
[3] = read-out: IC50 Caco-2/TC7 40 °C, 72 h, MTT, 1 h at 40 °C immediately after treatment (hyperthermia), mean ± SE

Structure (SMILES)	IC50 (Caco-2/TC7 cells; [1])	IC50 (Caco-2/TC7 cells; [2])	IC50 (Caco-2/TC7 cells; [3])	TrxR1 activity related to control (Recombinant Human TrxR1)
FC(F)(F)C(F)(F)C(F)(F)C(F)(F)C(F)(F)C(F)(F)CC[N+]12CN3CN(C1)C[P+]([Au-][S]c1ccccn1)(C3)C2.O=S(=O)([O-])C(F)(F)F [Complex 3b, [Au(C5H5NS)(PTA-CH2CH2(CF2)5CF3)](TfO)]	5.1 µM	5.11 ± 1.25 µM	4.26 ± 0.34 µM	Inhibitory effect
CCCCCCCC[N+]12CN3CN(C1)C[P+]([Au-][S]c1ccccn1)(C3)C2.[I-] [Complex 3a, [Au(C5H5NS)(PTA-CH2(CH2)6CH3)]I]	2.5 µM	2.49 ± 0.31 µM	2.05 ± 0.32 µM	Inhibitory effect
